Experimental findings from US20250197387A1, “BCL-XL DEGRADERS AND USES THEREOF” (Kymera Therapeutics, Inc., priority 2021, published 2025) are described below.

Assay type in all cases: cell-based
The target of one test is T1, BCL-XL (Homo sapiens, UniProt Q07817).
T1 construct: endogenous in cells; host or cells: MOLT-4
The experiment in a line: Bcl-xL ELISA degradation in MOLT-4 cells, 6 h. The conditions noted are these: for DC50: read-out: Bcl-xL ELISA in MOLT-4 degradation 6 h: Mean external-Abs DC50. The method, then:
The letter codes for BCL-XL DC50 include: A (<0.01 μM); B (0.01-0.1 μM); C (>[…]); D (>0.5-1.0 μM); and E (>1.0 μM). The letter codes for Dmax % include A (>75%); B (50 to 75%); C (<50%).

The next test deals with Caki-2 cells. The test is described as follows: CTG (CellTiter-Glo) cell viability assay, Caki-2. The conditions noted are these: Homo sapiens, 72 h, 3 day incubation, read-out: CTG Chempartner - Caki-2 3 day: Average external-IC50. A digest of the protocol: (§1)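 MOLT-4 and Caki-2 cells were seeded at 10,000 per well and treated with a 9-point, 1:3 dilution series from 10 μM top concentration (0.2% DMSO). After 3 days at 37 °C, 5% CO2, viability was read by CellTiter-Glo luminescence and IC50 fitted by three-parameter logistic.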
(In general: ATP-based viability assays read luminescence as a measure of living cells.)

Another test has as its system MOLT-4 cells. The experiment in a line: CTG (CellTiter-Glo) cell viability assay, MOLT-4. The conditions noted are these: Homo sapiens, MOLT-4, 72 h, 3 day incubation, read-out: CTG Cell Viability Assay - MOLT-4 3 day: Average external-IC50. A digest of the protocol: as §1

T1 sequence (Q07817 whole entry): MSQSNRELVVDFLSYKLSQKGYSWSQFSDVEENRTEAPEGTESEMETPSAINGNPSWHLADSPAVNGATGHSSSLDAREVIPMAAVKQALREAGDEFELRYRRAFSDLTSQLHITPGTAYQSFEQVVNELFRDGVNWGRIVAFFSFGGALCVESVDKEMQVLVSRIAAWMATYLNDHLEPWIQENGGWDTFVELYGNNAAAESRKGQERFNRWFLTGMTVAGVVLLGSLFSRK

Regarding `C#Cc1ccc(CNC(=O)[C@@H]2C[C@@H](O)CN2C(=O)[C@@H](NC(=O)CCCCCS(=O)(=O)NC(=O)c2nc(N3CCc4cccc(C(=O)Nc5nc6ccccc6s5)c4C3)ccc2-c2cnn(CC3CCCCC3)c2C)C(C)(C)CCO)cc1` [I-354], on BCL-XL, the maximal degradation (Dmax) – broadly, the largest share of the target that was removed – is above 75% and the 50% degradation concentration (DC50) – broadly, the concentration giving 50% degradation – is below 10 nM. In addition, the IC50 (commonly the midpoint of a concentration-inhibition curve) in the test with Caki-2 cells is above 10000 nM. Besides, the 50% inhibitory concentration (IC50) in the test on MOLT-4 cells was below 100 nM.
With `C#Cc1ccc([C@H](C)NC(=O)[C@@H]2C[C@@H](O)CN2C(=O)[C@@H](NC(=O)CCCCS(=O)(=O)NC(=O)c2nc(N(C)c3cc(C)c(Nc4nc5cccnc5s4)nn3)ccc2-c2cnn(CC34CC5CC(CC(C5)C3)C4)c2C)C(C)(C)C)cc1` [I-454], on BCL-XL, the Dmax is above 75% and the DC50 is 10 to 100 nM. Besides, the half-inhibitory concentration (IC50) in the test with Caki-2 cells is above 10000 nM. The IC50 with MOLT-4 cells fell in the range of 1000 to 3000 nM.
The corresponding values for `Cc1ncsc1-c1ccc([C@H](C)NC(=O)[C@@H]2C[C@@H](O)CN2C(=O)[C@@H](c2cc(OC3CC4(C3)CN(C(=O)c3nc(N5CCc6cccc(C(=O)Nc7nc8ccccc8s7)c6C5)ccc3-c3cnn(CC5CCCCC5)c3C)C4)no2)C(C)C)cc1` [I-294] are 50 to 75%, 10 to 100 nM, 1000 to 10000 nM and 100 to 1000 nM.
As to `C#Cc1ccc([C@H](COC)NC(=O)[C@@H]2C[C@@H](O)CN2C(=O)[C@@H](NC(=O)CCCCCS(=O)(=O)NC(=O)c2nc(N3CCc4cccc(C(=O)Nc5nc6cccnc6s5)c4C3)ccc2-c2cnn(CC3CCCCC3)c2C)C(C)(C)C)cc1` [I-478], at BCL-XL, the Dmax is above 75% and the 50% degradation concentration (DC50) was below 10 nM. In addition, in the test with Caki-2 cells, the IC50 was above 10000 nM. In the test on MOLT-4 cells, the IC50 is below 100 nM.
The corresponding values for `Cc1ncsc1-c1ccc(CNC(=O)[C@@H]2C[C@@H](O)CN2C(=O)[C@@H](NC(=O)CCCc2cccc(S(=O)(=O)NC(=O)c3nc(N4CCc5cccc(C(=O)Nc6nc7ccccc7s6)c5C4)ccc3-c3cnn(CC4CCCCC4)c3C)c2)C(C)(C)C)cc1` [I-337] are above 75%, below 10 nM, above 10000 nM and below 100 nM.
In the case of `CCC(CC)Cn1ncc(-c2ccc(N3CCc4cccc(C(=O)Nc5nc6ccccc6s5)c4C3)nc2C(=O)NS(=O)(=O)c2ccc(N3CCC(C(=O)N[C@H](C(=O)N4C[C@H](O)C[C@H]4C(=O)N[C@@H](C)c4ccc(-c5scnc5C)cc4)C(C)(C)C)CC3)cc2)c1C` [I-349], the Dmax at BCL-XL was above 75%. Also, the 50% degradation concentration (DC50) at BCL-XL is below 10 nM. Further, the IC50 was above 10000 nM with Caki-2 cells and below 100 nM in the test with MOLT-4 cells.
The corresponding values for `Cc1ncsc1-c1ccc([C@H](C)NC(=O)[C@@H]2C[C@@H](O)CN2C(=O)[C@@H](NC(=O)CCCc2ccc(S(=O)(=O)NCc3nc(N4CCc5cccc(C(=O)Nc6nc7ccccc7s6)c5C4)ccc3-c3cnn(CC4CCCCC4)c3C)cc2)C(C)(C)C)cc1` [I-307] are below 50%, above 1000 nM, above 10000 nM and 1000 to 3000 nM.
`Cc1ncsc1-c1ccc([C@H](C)NC(=O)[C@@H]2C[C@@H](O)CN2C(=O)[C@@H](NC(=O)COCCOCCS(=O)(=O)NC(=O)c2nc(N3CCc4cccc(C(=O)Nc5nc6ccccc6s5)c4C3)ccc2-c2cnn(CC3CCCCC3)c2C)C(C)(C)C)cc1` [I-463] returned a maximal degradation (Dmax) at BCL-XL above 75%. In addition, the DC50 on BCL-XL was 10 to 100 nM. In addition, the 50% inhibitory concentration (IC50) is 1000 to 10000 nM with Caki-2 cells and below 100 nM in the test with MOLT-4 cells.
Regarding `C#Cc1ccc(CNC(=O)[C@@H]2C[C@@H](O)CN2C(=O)[C@@H](NC(=O)CCNCCS(=O)(=O)NC(=O)c2nc(N(C)c3cc(C)c(Nc4nc5ccccc5s4)nn3)ccc2-c2cnn(CC34CC5CC(CC(C5)C3)C4)c2C)C(C)(C)C)cc1` [I-429], at BCL-XL, the Dmax was above 75% and the DC50 was 10 to 100 nM. The IC50 in the test with Caki-2 cells is above 10000 nM. In addition, the half-inhibitory concentration (IC50) with MOLT-4 cells was 100 to 1000 nM.
With `Cc1ncsc1-c1ccc([C@H](C)NC(=O)[C@@H]2C[C@@H](O)CN2C(=O)[C@@H](NC(=O)CCCCc2nc(C3CCCN(C(=O)c4nc(N5CCc6cccc(C(=O)Nc7nc8ccccc8s7)c6C5)ccc4-c4cnn(CC5CCCCC5)c4C)C3)no2)C(C)(C)C)cc1` (some centres unmarked) [I-306], at BCL-XL, the Dmax was above 75% and the half-maximal degradation concentration (DC50) is 10 to 100 nM. Further, the half-maximal inhibitory concentration (IC50) in the test with Caki-2 cells was in the range of 1000 to 10000 nM. In addition, in the test on MOLT-4 cells, the IC50 is below 100 nM.
The corresponding values for `C#Cc1ccc(CNC(=O)[C@@H]2C[C@@H](O)CN2C(=O)[C@H](NC(=O)CCCCCS(=O)(=O)NC(=O)c2nc(N3CCc4cccc(C(=O)Nc5nc6ccccc6s5)c4C3)ccc2-c2cnn(CC3CCCCC3)c2C)C(C)(C)CCO)cc1` [I-355] are above 75%, 100 to 500 nM, above 10000 nM and 1000 to 3000 nM.
For `Cc1ncsc1-c1ccc(CNC(=O)[C@@H]2C[C@@H](O)CN2C(=O)[C@@H](NC(=O)CCc2cccc(S(=O)(=O)NC(=O)c3nc(N4CCc5cccc(C(=O)Nc6nc7ccccc7s6)c5C4)ccc3-c3cnn(CC4CCCCC4)c3C)c2)C(C)(C)C)cc1` [I-283], at BCL-XL, the Dmax is above 75% and the DC50 was below 10 nM. Also, the IC50 with Caki-2 cells lay in the range of 1000 to 10000 nM. Moreover, in the test with MOLT-4 cells, the IC50 is below 100 nM.
The corresponding values for `Cc1c(-c2ccc(N3CCc4cccc(C(=O)Nc5nc6cccnc6s5)c4C3)nc2C(=O)NS(=O)(=O)CCCCCC(=O)N[C@H](C(=O)N2C[C@H](O)C[C@H]2C(=O)N[C@H](C)c2ccc(C#N)cc2O)C(C)(C)C)cnn1CC1CCCCC1` (single isomer, unassigned) [I-486] are above 75%, 10 to 100 nM, above 10000 nM and 100 to 1000 nM.
The corresponding values for `C#Cc1ccc([C@H](CO)NC(=O)[C@@H]2C[C@@H](O)CN2C(=O)[C@@H](NC(=O)CCNCCS(=O)(=O)NC(=O)c2nc(N3CCc4cccc(C(=O)Nc5nc6cccnc6s5)c4C3)ccc2-c2cnn(CC(C)C)c2C)C(C)(C)C)cc1` [I-414] are 50 to 75%, above 1000 nM, above 10000 nM and above 3000 nM.
The corresponding values for `Cc1cnc(NC(=O)c2cccc3c2CN(c2ccc(-c4cnn(CC5CCCCC5)c4C)c(C(=O)NS(=O)(=O)CCCCCC(=O)N[C@H](C(=O)N4C[C@H](O)C[C@H]4C(=O)N[C@@H](C)c4ccc(-c5scnc5C)cc4)C(C)(C)C)n2)CC3)s1` [I-460] are above 75%, 10 to 100 nM, above 10000 nM and below 100 nM.
Turning to `Cc1ncsc1-c1ccc([C@H](C)NC(=O)[C@@H]2C[C@@H](O)CN2C(=O)[C@@H](NC(=O)N2CC(CN3CCC(S(=O)(=O)NC(=O)c4nc(N5CCc6cccc(C(=O)Nc7nc8ccccc8s7)c6C5)ccc4-c4cnn(CC5CCCCC5)c4C)CC3)C2)C(C)(C)C)cc1` [I-336], the greatest degradation seen (Dmax) at BCL-XL is above 75%. For the same molecule, the half-maximal degradation concentration (DC50) on BCL-XL fell in the range of 10 to 100 nM. Also, the IC50 is above 10000 nM in the test with Caki-2 cells and 1000 to 3000 nM in the test with MOLT-4 cells.
Consider `C#Cc1ccc(CNC(=O)[C@@H]2C[C@@H](O)CN2C(=O)[C@@H](NC(=O)CCCCCS(=O)(=O)NC(=O)c2nc(N(C)c3cc(C)c(Nc4nc5cccnc5s4)nn3)ccc2-c2cnn(CC34CC5CC(CC(C5)C3)C4)c2C)C(C)(C)C)cc1` [I-446], for which, on BCL-XL, the Dmax is above 75% and the half-maximal degradation concentration (DC50) fell in the range of 10 to 100 nM. The half-maximal inhibitory concentration (IC50) with Caki-2 cells was above 10000 nM. Moreover, in the test on MOLT-4 cells, the IC50 was 100 to 1000 nM.
The corresponding values for `C#Cc1ccc([C@H](C)NC(=O)[C@@H]2C[C@@H](O)CN2C(=O)[C@@H](NC(=O)CCCCCS(=O)(=O)NC(=O)c2nc(N(C)c3cc(C)c(Nc4nc5ccccc5s4)nn3)ccc2-c2cnn(CC34CC5CC(CC(C5)C3)C4)c2C)C(C)(C)C)c(OCCO)c1` [I-477] are above 75%, below 10 nM, above 10000 nM and below 100 nM.
The corresponding values for `Cc1ncsc1-c1ccc([C@H](C)NC(=O)[C@@H]2C[C@@H](O)CN2C(=O)[C@@H](NC(=O)C2CCN(c3ccc(S(=O)(=O)NCc4nc(N5CCc6cccc(C(=O)Nc7nc8ccccc8s7)c6C5)ccc4-c4cnn(CC5CCCCC5)c4C)cc3)CC2)C(C)(C)C)cc1` [I-324] are below 50%, above 1000 nM, above 10000 nM and above 3000 nM.
For the molecule `Cc1cc(N(C)c2ccc(-c3cnn(CC45CC6CC(CC(C6)C4)C5)c3C)c(C(=O)NS(=O)(=O)CCCCC(=O)N[C@H](C(=O)N3C[C@H](O)C[C@H]3C(=O)NCc3ccc(-c4scnc4C)cc3)C(C)(C)C)n2)nnc1Nc1nc2ccccc2s1` [I-371], at BCL-XL, the Dmax was above 75% and the DC50 is below 10 nM. For the same molecule, the half-maximal inhibitory concentration (IC50) in the test on Caki-2 cells was above 10000 nM. Further, in the test with MOLT-4 cells, the IC50 fell in the range of 100 to 1000 nM.
As to `C#Cc1ccc(CNC(=O)[C@@H]2C[C@@H](O)CN2C(=O)[C@@H](NC(=O)CCN(C)CCS(=O)(=O)NC(=O)c2nc(N3CCc4cccc(C(=O)Nc5nc6cccnc6s5)c4C3)ccc2-c2cnn(CC3CCCCC3)c2C)C(C)(C)C)cc1` [I-413], at BCL-XL, the Dmax is above 75% and the half-maximal degradation concentration (DC50) was in the range of 10 to 100 nM. The IC50 in the test on Caki-2 cells was above 10000 nM. Besides, the 50% inhibitory concentration (IC50) in the test on MOLT-4 cells was 100 to 1000 nM.
The corresponding values for `C#Cc1ccc(CNC(=O)[C@@H]2C[C@@H](O)CN2C(=O)[C@@H](NC(=O)CCc2ccc(S(=O)(=O)NC(=O)c3nc(N(C)c4cc(C)c(Nc5nc6ccccc6s5)nn4)ccc3-c3cnn(CC(C)C)c3C)cc2)C(C)(C)C)cc1` [I-326] are below 50%, above 1000 nM, above 10000 nM and above 3000 nM.
The corresponding values for `C#Cc1ccc(CNC(=O)[C@@H]2C[C@@H](O)CN2C(=O)[C@@H](NC(=O)CCCS(=O)(=O)NC(=O)c2nc(N3CCc4cccc(C(=O)Nc5nc6cccnc6s5)c4C3)ccc2-c2cnn(CC3CCCCC3)c2C)C(C)(C)C)cc1` [I-362] are above 75%, 10 to 100 nM, above 10000 nM and 100 to 1000 nM.
